The structures appear in SMILES notation. pIC50: −log10 of the molar value. Where two headings read alike, the source gives them in different places.

In experiment [1] the test system is up-regulation of ICAM-1 (CD54) by IFNγ in U937 human monocytic cells. The experiment is described as follows: U937 IFNγ ICAM1 FACS Assay. The experiment is classed as cell-based. As to conditions: ICAM-1 expression by FACS, read-out: IC50, Example 44. The procedure, abridged:
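Readout was the geometric-mean APC anti-ICAM-1 signal by FACS on live U937 monocytic cells, with % live cells also recorded. Cells were exposed to compounds (8 points, 3-fold dilutions, duplicates) for 30 min at 37 °C before 18–24 h of IFNγ stimulation. EC50 values were computed from the dose curve.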

Experiment [2] deals with IL-4 stimulated expression of CD23 in human Ramos B cells (JAK-1 and JAK-3). The experiment can be described thus: Assay for Ramos B-Cell Line Stimulated with IL-4 (CD23 upregulation, FACS). The experiment is classed as cell-based. As to conditions: read-out: IC50, Example 41. The procedure, abridged:
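Human Ramos B cells (5×10^4 per point, RPMI 5% serum) pre-incubated 1 h at 37 °C with compound or DMSO, then stimulated with IL-4 at 50 units/mL final for 20-24 h. CD23 upregulation measured by anti-CD23-PE staining and flow cytometry; IC50 derived.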

[3] abbreviates: Homo sapiens, U-937, U937 cells stimulated with IFNγ.
The mark [4] stands for this setting: Homo sapiens, Ramos, Ramos B-cell line stimulated with IL-4, CD23 expression by FACS.

On to `Cc1cnc(Nc2ccc(S(N)(=O)=O)cc2)nc1Nc1ccc(OCC(=O)N(C)C)c(F)c1` [Compound I-137, N2-(4-Aminosulfonylphenyl)-N4-(4-dimethylaminocarbonylmethoxy-3-fluorophenyl)-5-methyl-2,4-pyrimidinediamine], for which the pIC50 is 4.53 in experiment [1] (setting [3]) and 6.41 in experiment [2] (setting [4]).
In the same order, the values of `Cc1cnc(Nc2cccc(S(N)(=O)=O)c2)nc1Nc1ccc(OCC(=O)N(C)C)c(F)c1` [Compound I-138, N2-(3-Aminosulfonylphenyl)-N4-(4-dimethylaminocarbonylmethoxy-3-fluorophenyl)-5-methyl-2,4-pyrimidinediamine] are 5.02 and 6.34.
In the same order, the values of `Cc1ccc(Nc2ncc(C)c(Nc3ccc(OCC(=O)N(C)C)c(F)c3)n2)cc1S(N)(=O)=O` [Compound I-139, N2-(3-Aminosulfonyl-4-methylphenyl)-N4-(4-dimethylaminocarbonylmethoxy-3-fluorophenyl)-5-methyl-2,4-pyrimidinediamine] are 5.49 and 6.43.
Turning to `CNC(=O)COc1ccc(Nc2nc(Nc3ccc(S(N)(=O)=O)cc3)ncc2C)cc1Cl` [Compound I-149, N2-(4-Aminosulfonylphenyl)-N4-(3-chloro-4-methylaminocarbonylmethoxyphenyl)-5-methyl-2,4-pyrimidinediamine], the pIC50 in experiment [1] (setting [3]) is 4.83; in experiment [2] (setting [4]), 6.79.
In the same order, the values of `CNC(=O)COc1ccc(Nc2nc(Nc3cccc(S(N)(=O)=O)c3)ncc2C)cc1Cl` [Compound I-150, N2-(3-Aminosulfonylphenyl)-N4-(3-chloro-4-methylaminocarbonylmethoxyphenyl)-5-methyl-2,4-pyrimidinediamine] are 4.98 and 7.18.
In the same order, the values of `CNC(=O)COc1ccc(Nc2nc(Nc3cccc(S(N)(=O)=O)c3)ncc2C)cc1F` [Compound I-155, N2-(3-Aminosulfonylphenyl)-N4-(3-fluoro-4-methylaminocarbonylmethoxyphenyl)-5-methyl-2,4-pyrimidinediamine] are 4.19 and 6.93.
With `CNC(=O)COc1ccc(Nc2nc(Nc3ccc(C)c(S(N)(=O)=O)c3)ncc2C)cc1F` [Compound I-156, N2-(3-Aminosulfonyl-4-methylphenyl)-N4-(3-fluoro-4-methylaminocarbonylmethoxyphenyl)-5-methyl-2,4-pyrimidinediamine], the pIC50 was 5.58 in experiment [1] (setting [3]) and 7.18 in experiment [2] (setting [4]).
In the same order, the values of `C=CCNC(=O)COc1ccc(Nc2nc(Nc3cccc(S(N)(=O)=O)c3)ncc2F)cc1` [Compound I-158, N4-(4-Allylaminocarbonylmethoxyphenyl)-N2-(3-aminosulfonylphenyl)-5-fluoro-2,4-pyrimidinediamine] are 5.86 and 6.53.
As for `C=CCNC(=O)COc1ccc(Nc2nc(Nc3ccc(C)c(S(N)(=O)=O)c3)ncc2F)cc1` [Compound I-159, N4-(4-Allylaminocarbonylmethoxyphenyl)-N2-(3-aminosulfonyl-4-methylphenyl)-5-fluoro-2,4-pyrimidinediamine], the pIC50 in experiment [1] (setting [3]) was 5.79; in experiment [2] (setting [4]) it was 6.47.
In the same order, the values of `Cc1ccc(Nc2ncc(F)c(Nc3ccc(OCc4cccnc4)cc3)n2)cc1S(N)(=O)=O` [Compound I-178, N2-(3-Aminosulfonyl-4-methylphenyl)-5-fluoro-N4-[4-(3-pyridylmethoxy)phenyl]-2,4-pyrimidinediamine] are 6.93 and 7.63.
In the same order, the values of `Cc1ccc(Nc2nc(Nc3cccc(S(N)(=O)=O)c3)ncc2F)cc1OCCN1CCOCC1` [Compound I-203, N2-(3-Aminosulfonylphenyl)-5-fluoro-N4-[4-methyl-3-(2-morpholinoethyloxy)phenyl]-2,4-pyrimidinediamine] are 5.50 and 6.58.
Taken in the same sequence, the figures for `Cc1ccc(Nc2nc(Nc3ccc(C)c(S(N)(=O)=O)c3)ncc2F)cc1OCCN1CCOCC1` [Compound I-204, N2-(3-Aminosulfonyl-4-methylphenyl)-5-fluoro-N4-[4-methyl-3-(2-morpholinoethyloxy)phenyl]2,4-pyrimidinediamine] were 5.41 and 6.59.
For `Cc1cc(COc2ccc(Nc3nc(Nc4cccc(S(N)(=O)=O)c4)ncc3F)cc2)no1` [Compound I-230, N2-(3-Aminosulfonylphenyl)-5-fluoro-N4-[4-(5-methylisoxazol-3-yl)methyleneoxyphenyl]-2,4-pyrimidinediamine], the pIC50 in experiment [1] (setting [3]) is 6.33; in experiment [2] (setting [4]), 7.07.
Taken in the same sequence, the figures for `Cc1cc(COc2ccc(Nc3nc(Nc4cccc(S(=O)(=O)NCc5oc(=O)oc5C)c4)ncc3F)cc2)no1` [Compound I-247, N2-{3-[(N-5-Methyl-1,3-dioxolene-2-one-4-yl)methylene]aminosulfonylphenyl}-5-fluoro-N4-[4-(5-methylisoxazol-3-yl)methyleneoxyphenyl]-2,4-pyrimidinediamine] were 5.97 and 6.65.
Taken in the same sequence, the figures for `Cc1nnc(COc2ccc(Nc3nc(Nc4ccc(C)c(S(N)(=O)=O)c4)ncc3F)cc2)o1` [Compound I-279, N2-(3-Aminosulfonyl-4-methylphenyl)-5-fluoro-N4-[4-(5-methyl-1,3,4-oxadiazol-2-yl)methoxyphenyl]-2,4-pyrimidinediamine] were 6.04 and 6.91.
In the case of `Cc1ccc(Nc2ncc(F)c(Nc3cnc4c(c3)OC(C)(C)C(=O)N4CC#N)n2)cc1S(N)(=O)=O` [Compound V-14, N2-(3-Aminosulfonyl-4-methylphenyl)-N4-[2,2-dimethyl-3-oxo-4-cyanomethyl-5-pyrid[1,4]oxazin-7-yl]-5-fluoro-2,4-pyrimidinediamine], the pIC50 in experiment [1] (U937 cells stimulated with IFNγ) was 5.16; in experiment [2] (Ramos B cells stimulated with IL-4, CD23 expression by FACS), 6.71.
As to `Cc1cc2ccc(CNc3nc(Nc4cccc(S(N)(=O)=O)c4)ncc3F)cc2[nH]1` [Compound X-3], the pIC50 in experiment [1] (setting [3]) was 5.86; in experiment [2] (Homo sapiens, Ramos, Ramos B cells stimulated with IL-4, CD23 expression by FACS) it was 6.46.
Take `Cc1ccc(Nc2ncc(F)c(Nc3cccc(OC4CCN(C)CC4)c3)n2)cc1S(N)(=O)=O` [II-2, N2-(3-Aminosulfonyl-4-methylphenyl)-5-fluoro-N4-{3-[(1-methylpiperidin-4-yl)oxy]phenyl}-2,4-pyrimidinediamine]: the pIC50 in experiment [1] (setting [3]) is 5.34; in experiment [2] (setting [4]), 6.61.
Taken in the same sequence, the figures for `Cc1ccc(Nc2ncc(F)c(Nc3ccc(OC4CCN(C)CC4)c(C(F)(F)F)c3)n2)cc1S(N)(=O)=O` [II-6, N2-(3-Aminosulfonyl-4-methylphenyl)-5-fluoro-N4-{4-[(1-methylpiperidin-4-yl)oxy]-3-trifluoromethylphenyl}-2,4-pyrimidinediamine] were 5.19 and 6.96.
`Cc1ccc(Nc2ncc(F)c(Nc3ccc(OC4CCN(C)CC4)cc3)n2)cc1S(N)(=O)=O` [II-7, N2-(3-Aminosulfonyl-4-methylphenyl)-5-fluoro-N4-{4-[(1-methylpiperidin-4-yl)oxy]phenyl}-2,4-pyrimidinediamine]: the figures for the pIC50 in experiment [1] (setting [3]) and in experiment [2] (setting [4]) were 5.79 and 6.84, respectively.
Taken in the same sequence, the figures for `NS(=O)(=O)c1cccc(Nc2ncc(F)c(Nc3ccc(Oc4cccnc4)cc3)n2)c1` [II-11, N2-(3-Aminosulfonylphenyl)-5-fluoro-N4-[4-(3-pyridyloxy)phenyl]-2,4-pyrimidinediamine] were 6.04 and 6.97.
Taken in the same sequence, the figures for `Cc1ccc(Nc2ncc(F)c(Nc3ccc(Oc4cccnc4)cc3)n2)cc1S(N)(=O)=O` [II-12, N2-(3-Aminosulfonyl-4-methylphenyl)-5-fluoro-N4-[4-(3-pyridyloxy)phenyl]-2,4-pyrimidinediamine] were 5.92 and 7.25.
In the same order, the values of `Cc1cnc(Nc2ccc(Cl)c(S(N)(=O)=O)c2)nc1Nc1ccc(CCC#N)cc1` [III-12, N2-(3-Aminosulfonyl-4-chlorophenyl)-N4-[4-(2-cyanoethyl)phenyl]-5-methyl-2,4-pyrimidinediamine] are 6.49 and 7.15.
On to `Cc1ccc(Nc2ncc(F)c(Nc3ccc(CCC#N)c(F)c3)n2)cc1S(N)(=O)=O` [III-17, N2-(3-Aminosulfonyl-4-methylphenyl)-5-fluoro-N4-[4-(2-cyanoethyl)-3-fluorophenyl]-2,4-pyrimidinediamine], for which the pIC50 in experiment [1] (setting [3]) is 6.11; in experiment [2] (setting [4]) it was 7.25.
In the same order, the values of `N#CCCc1ccc(Nc2nc(Nc3cccc(S(N)(=O)=O)c3)ncc2F)cc1F` [III-18, N2-(3-Aminosulfonylphenyl)-N4-[4-(2-cyanoethyl)-3-fluorophenyl]-5-fluoro-2,4-pyrimidinediamine] are 6.26 and 7.44.
In the same order, the values of `Cc1cc(Nc2nc(Nc3ccc(C)c(S(N)(=O)=O)c3)ncc2F)ccc1CCC#N` [III-19, N2-(3-Aminosulfonyl-4-methylphenyl)-N4-[4-(2-cyanoethyl)-3-methylphenyl]-5-fluoro-2,4-pyrimidinediamine] are 7.26 and 7.14.
In the same order, the values of `Cc1cc(Nc2nc(Nc3cccc(S(N)(=O)=O)c3)ncc2F)ccc1CCC#N` [III-20, N2-(3-Aminosulfonylphenyl)-N4-[4-(2-cyanoethyl)-3-methylphenyl]-5-fluoro-2,4-pyrimidinediamine] are 5.48 and 7.37.

The values are drawn from patent publication US11827628B2, “Compositions and methods for inhibition of the JAK pathway” (Rigel Pharmaceuticals, Inc., priority 2005, dated 2023).
